# Measurements published in patent US9937210B2, “Method for isolating fraction having anti-inflammatory or osteoarthritis-inhibiting effects by using oyster shell chips” (Seojin Biotech Co., Ltd., priority 2012, dated 2018).
# Several values for one entry are separate records, joined by “and”; a condition that tells them apart may be missing. Identical values can stand only once.
# Tests used:
# [1] = test system: animal models of osteoarthritis C57BL/6J mouse; test: Visual observation of knee joint cartilage surface in papain-induced osteoarthritis; type: in vivo; conditions: DS 2 mg/kg/bw; fraction 3 100 and 200 mg/kg/bw; oral once daily 20 days
# Method: (§1) 40 eight week-old animal models of osteoarthritis C57BL/6J mouse were purchased from Central Laboratory Animal Inc. (Seoul, Korea), adapted with a general diet for 1 week and then used in the experiments. The temperature and humidity of the breeding room were maintained at 20±2° C., 50±10%, the lightening conditions were such that the light was turned on and off every 12 hours and the light was kept on from 07:00˜19:00. During the experiment, the feedstuff (Orient Bio, Seoul, Korea) and water were to be freely taken.
# (§2) The osteoarthritis was induced by the method given in the test guidelines of the effect of the herbal preparation presented by the Korean Food and Drug Administration. Papain (type IV, double crystallized, 15 units/mg, Sigma, USA) was adjusted to a concentration of 1.0% (w/v) in which 0.03 ML-cystein HCl (Sigma, USA) was supplemented for the activation of papain and then passed through the patellar ligament. […] 6 was administered in the right knee joint to induce osteoarthritis.
# The experiment animals were adapted in a lab environment for 1 week and then the body weight was measured. Eight animals were assigned to each group to have even body weight. In the normal group, the physiological saline 6 was injected in the right knee joint and then the physiological saline 0.2 ml was orally administered once a day for 20 days. […]
# [2] = test system: animal models of osteoarthritis C57BL/6J mouse; test: Osteoarthritis index (histopathology, method of Rudolphi) in papain-induced osteoarthritis; type: in vivo
# Method: as §1, §2
# The experiment animals were adapted in a lab environment for 1 week and then the body weight was measured. Eight animals were assigned to each group to have even body weight. In the normal group, the physiological saline 6 was injected in the right knee joint and then the physiological saline 0.2 ml was orally administered once a day for 20 days. In the treated groups, i.e., a control group, a drug-administered group and a fraction 3-administered group, papain 6 was injected in the right knee joint to induce osteoarthritis. The physiological saline in the control group, Diclofenac sodium (DS, 2 mg/kg/bw) in the drug-administered group, and 100 mg/kg/bw {below, called “fraction 3 (100)”} and 200 mg/kg/bw {below, called “fraction 3 (200)”} in the fraction 3-administered group of Example 2 were orally administered once daily at a predetermined time for 20 days.
# All subjects were lightly anesthetized with ether at the experiment end day to take a heart blood sample. The blood was centrifuged to isolate a serum. Immediately after taking a heart blood sample, the right hip joint and ankle joint were isolated and removed so as not to damage the knee joint. The tibial of the right knee joint was fixed in 10% neutral formalin solution for 24 hours and then used for the visual observation of the joints.
# The osteoarthritis index for the observed histopathological lesions in the articular cartilage and synovial membrane was digitalized in accordance with a method of Rudolphi, at al. and is shown in Table 2 below.
# TNF-α = TNF-α content in blood, ELISA, papain-induced arthritis; type: in vivo, mouse; conditions: DS 2 mg/kg/bw; fraction 3 100 and 200 mg/kg/bw; oral once daily 20 days
# Method: The experiment animals were adapted in a lab environment for 1 week and then the body weight was measured. Eight animals were assigned to each group to have even body weight. In the normal group, the physiological saline 6 was injected in the right knee joint and then the physiological saline 0.2 ml was orally administered once a day for 20 days. In the treated groups, i.e., a control group, a drug-administered group and a fraction 3-administered group, papain 6 was injected in the right knee joint to induce osteoarthritis. The physiological saline in the control group, Diclofenac sodium (DS, 2 mg/kg/bw) in the drug-administered group, and 100 mg/kg/bw {below, called “fraction 3 (100)”} and 200 mg/kg/bw {below, called “fraction 3 (200)”} in the fraction 3-administered group of Example 2 were orally administered once daily at a predetermined time for 20 days. All subjects were lightly anesthetized with ether at the experiment end day to take a heart blood sample. The blood was centrifuged to isolate a serum. […] The contents of tumor necrosis factor-α (TNF-α), interleukin-1β (IL-1β) and interleukin-6 (IL-6) were measured using enzyme-linked immunosorbent assay (ELISA) kit, respectively. The effect of fraction 3 of the inflammatory cytokine TNF-α produced in large quantities in animals where arthritis was induced by injection of papain, was measured by ELISA method.
# IL-6 = test: Interleukin-6 content in blood, ELISA, papain-induced arthritis; type: in vivo, mouse; conditions: DS 2 mg/kg/bw; fraction 3 100 and 200 mg/kg/bw; oral once daily 20 days
# Method: The experiment animals were adapted in a lab environment for 1 week and then the body weight was measured. Eight animals were assigned to each group to have even body weight. In the normal group, the physiological saline 6 was injected in the right knee joint and then the physiological saline 0.2 ml was orally administered once a day for 20 days. In the treated groups, i.e., a control group, a drug-administered group and a fraction 3-administered group, papain 6 was injected in the right knee joint to induce osteoarthritis. The physiological saline in the control group, Diclofenac sodium (DS, 2 mg/kg/bw) in the drug-administered group, and 100 mg/kg/bw {below, called “fraction 3 (100)”} and 200 mg/kg/bw {below, called “fraction 3 (200)”} in the fraction 3-administered group of Example 2 were orally administered once daily at a predetermined time for 20 days. All subjects were lightly anesthetized with ether at the experiment end day to take a heart blood sample. The blood was centrifuged to isolate a serum. Immediately after taking a heart blood sample, the right hip joint and ankle joint were isolated and removed so as not to damage the knee joint. […] The contents of tumor necrosis factor-α (TNF-α), interleukin-1β (IL-1β) and interleukin-6 (IL-6) were measured using enzyme-linked immunosorbent assay (ELISA) kit, respectively.
# IL-1β = test: Interleukin-1β content in blood, ELISA, papain-induced arthritis; type: in vivo, mouse; conditions: DS 2 mg/kg/bw; fraction 3 100 and 200 mg/kg/bw; oral once daily 20 days; p<0.05
# Method: The experiment animals were adapted in a lab environment for 1 week and then the body weight was measured. Eight animals were assigned to each group to have even body weight. In the normal group, the physiological saline 6 was injected in the right knee joint and then the physiological saline 0.2 ml was orally administered once a day for 20 days. In the treated groups, i.e., a control group, a drug-administered group and a fraction 3-administered group, papain 6 was injected in the right knee joint to induce osteoarthritis. The physiological saline in the control group, Diclofenac sodium (DS, 2 mg/kg/bw) in the drug-administered group, and 100 mg/kg/bw {below, called “fraction 3 (100)”} and 200 mg/kg/bw {below, called “fraction 3 (200)”} in the fraction 3-administered group of Example 2 were orally administered once daily at a predetermined time for 20 days. All subjects were lightly anesthetized with ether at the experiment end day to take a heart blood sample. The blood was centrifuged to isolate a serum. […] The contents of tumor necrosis factor-α (TNF-α), interleukin-1β (IL-1β) and interleukin-6 (IL-6) were measured using enzyme-linked immunosorbent assay (ELISA) kit, respectively. The effect of fraction 3 of the inflammatory cytokine IL-1β produced in large quantities in animals where arthritis was induced by injection of papain was measured by ELISA method.
# [3] = Papain + DS 2 mg/kg/bw oral once daily 20 days, group mean
# [4] = Papain + DS 2 mg/kg/bw oral once daily 20 days, individual animals 1-8
smiles,measurement,setting,value
"O=C(O)Cc1ccccc1Nc1c(Cl)cccc1Cl [DS, Diclofenac sodium]",visual appearance of knee joint cartilage surface compared with papain-administered group,[1],the scope of the discoloration was less and the elimination of visual cartilage surface was not observed
same,osteoarthritis index compared with the papain-administered control group,"[2]; DS 2 mg/kg/bw, fraction 3 100 and 200 mg/kg/bw, oral once daily 20 days, p<0.05",significantly lower
same,"Cellularity score, Mean",[2]; [3],2.0
same,"Matrix structure score, Mean",[2]; [3],2.6
same,"Subchondral bone score, Mean",[2]; [3],1.1
same,"Synovial membrane score, Mean",[2]; [3],1.5
same,"Sum of osteoarthric score, Mean","[2]; Papain + DS 2 mg/kg/bw oral once daily 20 days, group mean, papain control 19.8",7.4
same,"Cellularity score, per subject",[2]; [4],2
same,"Matrix structure score, per subject",[2]; [4],1 (3×) and 3 (4×) and 6
same,"Subchondral bone score, per subject",[2]; [4],3 (3×) and 0 (5×)
same,"Sum of osteoarthric score, per subject",[2]; [4],6 (2×) and 4 and 11 (2×) and 5 and 8 (2×)
same,"Synovial membrane score, per subject",[2]; [4],0 (3×) and 1 and 3 (4×)
same,TNF-α content in blood compared with papain-administrated control group,TNF-α,significantly lower
same,IL-6 content in blood compared with papain-administrated control group,IL-6,significantly lower
same,IL-1β content in blood compared with papain-administrated control group,IL-1β,significantly lower
